Experimental data reported in patent publication US20120232062A1, “AZAINDAZOLES TO TREAT FLAVIVIRIDAE VIRUS INFECTION” (EIGER BIOPHARMACEUTICALS, INC., priority 2009, published 2012).

Experiments:
[1] = Liver microsome stability, mouse; assay type: in vitro ADME, CD-1 mouse
Text: Metabolic stability assays are designed to measure the stability of a test compound in a variety of assay matrices from human and animal species. From a metabolism perspective, a drug would be relatively stable, have a small first-pass effect, and maintain an effective concentration in blood for a reasonable period of time. A microsomal preparation from the liver contains all CYP isozymes and other membrane-bound drug metabolizing enzymes which are responsible for the metabolism for the majority of drugs in humans. Metabolic stability in liver microsomes can determine half-life (T1/2) and intrinsic clearance (Clint). The determination of Clint may be useful to determine whether metabolism is the major elimination pathway when it is compared to total body clearance in vivo. For high metabolic stability in liver microsomes: […] Human, Sprague Dawley rat, and CD-1 mouse liver microsome samples were purchased from BD Gentest. An in vitro metabolic stability assay suitable for use in predicting first pass metabolism of the compounds useful in the methods of the invention is described in this example. […] 6 mM NADPH in 0.1 M K-phosphate buffer is prepared by dissolving 25.1 mg of NADPH tetrasodium salt in 5 mL of K-phosphate buffer. […] The plate is pre-incubated at 37° C. for 10 minutes. 15 μL of NADPH stock solution (6 mM) is added to the wells designated for Time 60 and timed. At 30 min, 15 min, and 5 min, 15 μL of NADPH stock solution (6 mM) is added to the wells. At the end of incubation, 135 μL of ACN containing IS is added to all the wells (60 min, 30 min, 15 min, 5 min and 0 min). Then 15 μL of NADPH stock solution (6 mM) is added to the wells designated as Time 0.

[2] = Caco-2 permeability testing; assay type: in vitro ADME, human; settings: human; for efflux ratio at 90 min, 10 µM: pH 7.4, Caco-2, Papp (B-A)/Papp (A-B), read-out: Efflux/Permeability ratio (desired <3); for Papp A→B at 90 min, 10 µM: Caco-2, pH 7.4, Caco-2, A-B, read-out: Permeability (second figure of Efflux/permeability), Papp (A-B); for Papp B→A at 90 min, 10 µM: Caco-2, pH 7.4, Caco-2, B-A, read-out: Efflux (first figure of Efflux/permeability), Papp (B-A)
Text: Intestinal epithelium permeability is a critical characteristic that determines the rate and extent of human absorption and affects bioavailability of a drug candidate. Poor intestinal permeability leads to limited absorption. Generally, higher absorption is preferred. The Caco-2 cell line is a human colon adeno-carcinoma cell line that resembles the epithelial lining of the human small intestine. Several transport proteins that are expressed in human intestinal epithelium are also expressed in the Caco-2 cell model. Some transporter proteins are efflux systems which mediate the secretion of compounds from inside the cell back to the apical lumen (representative of the intestinal lumen), limiting overall absorption. In a permeability assay, the apparent permeability coefficient is measured between the apical to basolateral sides of a cell monolayer, Papp (A-B), and the basolateral to the apical side, Papp (B-A). Papp (A-B)<2×10^−6 cm/s is predictive of low permeability to the basolateral side, 2×10^−6 cm/s<Papp (A-B)<20×10^−6 cm/s is predictive of medium permeability, and Papp (A-B)>20×10^−6 cm/s is predictive of high permeability. In the B-A permeability assay, Papp (B-A) is measured and compounds evaluated for efflux potential. Together, these assay results are reported as a ratio of Papp (B-A) to Papp (A-B). Papp (B-A)/Papp (A-B)>3 are likely to be transported by one of the efflux systems, and have poor absorption. Papp (B-A)/Papp (A-B)<3 are likely to show reasonable intestinal absorption. An in vitro drug absorption assay suitable for use in predicting intestinal absorption of the compounds useful in the methods of the invention is described in this example. The embodiments of this assay described in this example were developed by Shanghai ChemPartner Co., Ltd., a corporation of China with its principal office located at 720 Cailun Road, Building No. 3, Shanghai 201203, China.
Caco-2 (ATCC, catalog No. HTB-37™) cells are cultured in growth medium (MEM+10% FBS+1% NEAA). The growth medium is prepared by adding 50 mL FBS and 5 mL NEAA to 445 mL of MEM or by adjusting the final volume according to actual needs. Trypsin-EDTA (Invitrogen, Cat #25200-072) is also used.
Hanks Balanced Salt Solution (HBSS, Invitrogen, Cat #14025-092) with 25 mM HEPES, pH 7.4, HBSS buffer with 0.2% DMSO (50 μL DMSO into 25 ml HBSS buffer), and HBSS buffer with 0.4% DMSO (100 μL DMSO into 25 ml HBSS buffer) are used.
10 mM stock solutions of a compound is prepared in DMSO and Lucifer Yellow in assay buffer using the formula (Actual Weight/Molecular Weight)/mL solvent=10 mM. Erythromycin, Metoprolol, and Atenolol are used as reference compounds. Donor solutions (10 μM for compounds and 5 μM for Lucifer Yellow) are prepared. For A-B, 4 μL of 10 mM compound stock solution and 2 μL of 10 mM Lucifer Yellow stock solution are loaded into 4 mL of HBSS buffer, and centrifuged (5 min, 4000 rpm) to precipitate undissolved particles. Supernatants are collected for compound dosing. For B-A, 4 μL (compounds) of 10 mM compound stock solution is added to 4 mL HBSS buffer with 0.2% DMSO, and centrifuged (5 min, 4000 rpm) to precipitate undissolved particles. Supernatants are collected for compound dosing.
Receiver solutions are prepared. For A-B, the solution is HBSS buffer with 0.4% DMSO. For B-A, 2 μL of 10 mM Lucifer Yellow stock solution is added to 4 mL of HBSS buffer with 0.2% DMSO. Compound solutions are prepared for standard curve (3 μM/1 μM/0.2 μM/0.04 μM/0.01 μM/0.005 μM):
1× solution: 3 μL of 20× solution (0.1-60 μM)+57 μL 0.4% DMSO HBSS+60 μL acetonitrile (ACN) with internal standard (IS, 200 ng/mL Osalmid). The assay was performed as described below
Stock cultures are maintained in MEM+10% FBS+1% NEAA, grown in 75 cm^2 tissue culture treated flasks and split (passed) 2 times weekly to maintain desired confluence. For maintenance passage, trypsinized cells are routinely distributed into new flasks at a standard passage ratio of 1:4. […]

## Cn1nc(C(=O)NC2CCN(CCN3CCCCC3)CC2)c2ccc(N3CCCCCC3)nc21 [EBP1047]
[1]; after 15 min
  mouse liver microsome (MLM), % parent remaining: 56 % parent remaining
[1]; after 30 min
  mouse liver microsome (MLM), % parent remaining: 29 % parent remaining
[1]; after 60 min
  mouse liver microsome (MLM), % parent remaining: 12 % parent remaining

## CCN1CCC(NC(=O)c2nn(C)c3nc(N4CCCCCC4)ccc23)CC1 [EBP1595]
[2]
  efflux ratio at 90 min, 10 µM: 0.9
[1]; after 15 min
  mouse liver microsome (MLM), % parent remaining: 67 % parent remaining
[1]; after 30 min
  mouse liver microsome (MLM), % parent remaining: 50 % parent remaining
[1]; after 60 min
  mouse liver microsome (MLM), % parent remaining: 17 % parent remaining

## Cn1nc(C(=O)NC2CCN(CCN3CCCC3)CC2)c2ccc(N3CCCCCC3)nc21 [EBP1597]
[2]
  efflux ratio at 90 min, 10 µM: 0.8
[1]; after 15 min
  mouse liver microsome (MLM), % parent remaining: 67 % parent remaining
[1]; after 30 min
  mouse liver microsome (MLM), % parent remaining: 32 % parent remaining
[1]; after 60 min
  mouse liver microsome (MLM), % parent remaining: 14 % parent remaining

## CC(C)N1CCC(NC(=O)c2nn(C)c3nc(N4CCCCCC4)ccc23)CC1 [EBP1604]
[2]
  Papp A→B at 90 min, 10 µM: 120 nm/s
  Papp B→A at 90 min, 10 µM: 90 nm/s
  efflux ratio at 90 min, 10 µM: 0.8
[1]; after 15 min
  mouse liver microsome (MLM), % parent remaining: 57 % parent remaining
[1]; after 30 min
  mouse liver microsome (MLM), % parent remaining: 40 % parent remaining
[1]; after 60 min
  mouse liver microsome (MLM), % parent remaining: 14 % parent remaining

## Cn1nc(C(=O)NC2CCNCC2)c2ccc(N3CCCCCC3)nc21.O=C(O)C(F)(F)F.O=C(O)C(F)(F)F [compound 697]
[2]
  Papp A→B at 90 min, 10 µM: 55 nm/s
  Papp B→A at 90 min, 10 µM: 480 nm/s
[1]; after 15 min
  mouse liver microsome (MLM), % parent remaining: 85 % parent remaining
[1]; after 30 min
  mouse liver microsome (MLM), % parent remaining: 74 % parent remaining
[1]; after 60 min
  mouse liver microsome (MLM), % parent remaining: 44 % parent remaining

## CCC(CC)Oc1ccc2c(C(=O)NC3CCNCC3)n[nH]c2n1 [compound 726]
[2]
  Papp A→B at 90 min, 10 µM: 35 nm/s
  Papp B→A at 90 min, 10 µM: 410 nm/s
[1]; after 15 min
  mouse liver microsome (MLM), % parent remaining: 99 % parent remaining
[1]; after 30 min
  mouse liver microsome (MLM), % parent remaining: 96 % parent remaining
[1]; after 60 min
  mouse liver microsome (MLM), % parent remaining: 86 % parent remaining

## Clc1ccc(Cn2nc(COCCCN3CCCCC3)c3ccc(N4CCCCCC4)nc32)cc1 [compound 749]
[2]
  Papp A→B at 90 min, 10 µM: 4.4 nm/s
  Papp B→A at 90 min, 10 µM: 5.2 nm/s

## CCC(CC)Oc1ccc2c(COCC3CCCNC3)nn(Cc3ccc(Cl)cc3)c2n1.O=C(O)C(F)(F)F (centres unmarked) [compound 755]
[2]
  Papp A→B at 90 min, 10 µM: 4 nm/s
  Papp B→A at 90 min, 10 µM: 2 nm/s

## O=C(NC1CCNCC1)c1nn(C(=O)C2CCCCC2)c2nc(N3CCCCCC3)ccc12.O=C(O)C(F)(F)F.O=C(O)C(F)(F)F.O=C(O)C(F)(F)F [compound 989]
[2]
  Papp A→B at 90 min, 10 µM: 50 nm/s
  Papp B→A at 90 min, 10 µM: 30 nm/s

## Cn1nc(C(=O)NC2CCN(CCN3CCCCC3)CC2)c2ccc(N3CCCCCC3)nc21 [compound 1047]
[2]
  Papp A→B at 90 min, 10 µM: 105 nm/s
  Papp B→A at 90 min, 10 µM: 76 nm/s
[1]; after 15 min
  mouse liver microsome (MLM), % parent remaining: 56 % parent remaining
[1]; after 30 min
  mouse liver microsome (MLM), % parent remaining: 29 % parent remaining
[1]; after 60 min
  mouse liver microsome (MLM), % parent remaining: 12 % parent remaining

## Cn1nc(C(=O)NC2CCN(CC3CCCCC3)CC2)c2ccc(N3CCCCCCC3)nc21 [compound 1062]
[2]
  Papp A→B at 90 min, 10 µM: 17 nm/s
  Papp B→A at 90 min, 10 µM: 6 nm/s

## Cn1nc(C(=O)NC2CCN(CC(F)F)CC2)c2ccc(N3CCCCCC3)nc21 [compound 1110]
[2]
  Papp A→B at 90 min, 10 µM: 138 nm/s
  Papp B→A at 90 min, 10 µM: 101 nm/s
[1]; after 15 min
  mouse liver microsome (MLM), % parent remaining: 15 % parent remaining
[1]; after 30 min
  mouse liver microsome (MLM), % parent remaining: 1 % parent remaining
[1]; after 60 min
  mouse liver microsome (MLM), % parent remaining: 0.4 % parent remaining

## Cn1nc(CCCN2CCCC2)c2ccc(N3CCCCCCC3)nc21 [compound 1171]
[2]
  Papp A→B at 90 min, 10 µM: 170 nm/s
  Papp B→A at 90 min, 10 µM: 110 nm/s
[1]; after 15 min
  mouse liver microsome (MLM), % parent remaining: 22 % parent remaining
[1]; after 30 min
  mouse liver microsome (MLM), % parent remaining: 3 % parent remaining
[1]; after 60 min
  mouse liver microsome (MLM), % parent remaining: 1 % parent remaining

## Cn1nc(CCCN2CCCCC2CO)c2ccc(N3CCCCCCC3)nc21 (centres unmarked) [compound 1456]
[2]
  Papp A→B at 90 min, 10 µM: 150 nm/s
  Papp B→A at 90 min, 10 µM: 150 nm/s
[1]; after 15 min
  mouse liver microsome (MLM), % parent remaining: 1.7 % parent remaining
[1]; after 30 min
  mouse liver microsome (MLM), % parent remaining: 0.9 % parent remaining
[1]; after 60 min
  mouse liver microsome (MLM), % parent remaining: 0.3 % parent remaining

## CCN1CCC(NC(=O)c2nn(C)c3nc(N4CCCCCC4)ccc23)CC1 [compound 1595]
[2]
  Papp A→B at 90 min, 10 µM: 153 nm/s
  Papp B→A at 90 min, 10 µM: 144 nm/s
[1]; after 15 min
  mouse liver microsome (MLM), % parent remaining: 67 % parent remaining
[1]; after 30 min
  mouse liver microsome (MLM), % parent remaining: 50 % parent remaining
[1]; after 60 min
  mouse liver microsome (MLM), % parent remaining: 17 % parent remaining

## Cn1nc(C(=O)NC2CCN(CCN3CCCC3)CC2)c2ccc(N3CCCCCC3)nc21 [compound 1597]
[2]
  Papp A→B at 90 min, 10 µM: 92 nm/s
  Papp B→A at 90 min, 10 µM: 65 nm/s
[1]; after 15 min
  mouse liver microsome (MLM), % parent remaining: 67 % parent remaining
[1]; after 30 min
  mouse liver microsome (MLM), % parent remaining: 32 % parent remaining
[1]; after 60 min
  mouse liver microsome (MLM), % parent remaining: 14 % parent remaining
